The subject of data set [1] is human ribosome. The arrangement: method as in PMID 32601485. To be noted: read-out: IC50, inhibition on human ribosome; cited from earlier work.
For data set [2], the system named is 15B196 S. aureus ribosomes (A2058-methylated). Put plainly: PURE in vitro translation inhibition assay. Format: biochemical, Staphylococcus aureus. The note with it: mean ± SD. The method, then:
(§1) To validate the in vitro activity of our compounds, we employed an in vitro reconstituted E. coli Protein synthesis Using a Recombinant Elements (PURE) translation system, substituting E. coli ribosomes with the purified S. aureus ribosomes.
(§2) 5 μL of PURE reaction mix that translates a gene encoding the Nanoluc luciferase was set up in the presence or absence of tested compounds. Protein synthesis was initiated by incubating reactions at 37 °C for 60 min and stopped by placing on ice for 5 min. Luciferase activity was quantified using the Nano-Glo luciferase assay system and read on a GloMax 20/20 luminometer (Promega, USA). For each compound, the in vitro translation inhibition assay was performed in three biological triplicates over a range of concentrations from 0.001 μM to 1000 μM. A compound-free control was used to normalize luminescence measurements. The calculated luminescence percentages were plotted against compound concentrations on a semilog scale using GraphPad Prism.

Data set [3] has as its system WT S. aureus ribosomes. As to the kind of experiment: PURE in vitro translation inhibition assay. Format: biochemical, Staphylococcus aureus. The note with it: mean ± SD. The method, then:
as §1, §2

Data set [4] can be described thus: CCK-8 assay for cytotoxicity. To be noted: human, HEK293T cells, HEK293T cell viability. The data set is classed as cell-based, human. The method, then: HepG2 cells (6 × 10^3) and HEK293T cells (4 × 10^3) were seeded into 96-well plates in 90 μL of DMEM medium containing 10% FBS per well. […] After overnight incubation, the test compound stock solution was diluted with DMEM medium containing 10% FBS to every target concentration, and 10 μL of each was added to each well. Three parallel experiments were set up for each compound. After incubation for 48 h, 10 μL of cell counting kit-8 (CCK-8) reagent was added to each well in sequence according to the manufacturer’s instructions. […] This experiment was independently repeated three times. The data were processed by GraphPad Prism.
(In general: Tetrazolium assays rely on reduction of a dye to a coloured formazan, in cell work by metabolically active cells.)

For data set [5], the system named is S. pneumoniae. As to the kind of experiment: MIC, broth microdilution. Format: cell-based, Streptococcus pneumoniae. A digest of the protocol:
(§3)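 Incubation ran for 16–20 h at 37 °C after setup per Clinical and Laboratory Standards Institute microdilution procedure. Growth was then observed to assign the MIC. Assays were replicated at least three times.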
Background: Broth dilution looks for growth in wells or tubes with falling amounts of substance.

The test system of data set [6] is S. pyogenes. As to the kind of experiment: MIC, broth microdilution. Format: cell-based, Streptococcus pyogenes. A digest of the protocol: as §3

Converted amounts (≈) assume the structure as drawn. Where only a bound is given, the exact number is not on record here.

Turning to `COC(=O)c1c(OC)cc2cc3c(c(O)c2c1C)C(=O)[C@]1(OC)C(=O)C=C(OC)[C@@H](O)[C@]1(O)C3=O` [TcmX, tetracenomycin X], the IC50 (commonly the concentration that gives 50% inhibition) in data set [1] is 10 µM.

In the case of `CC[C@H]1OC(=O)[C@H](C)[C@@H](O[C@H]2C[C@@](C)(OC)[C@@H](O)[C@H](C)O2)[C@H](C)[C@@H](O[C@@H]2O[C@H](C)C[C@H](N(C)C)[C@H]2O)[C@](C)(O)C[C@@H](C)C(=O)[C@H](C)[C@@H](O)[C@]1(C)O` [erythromycin, reference compound], the IC50 in data set [2] was greater than 10 µM; in data set [3], 0.18 ± 0.03 µM. The CC50 (commonly the concentration at which the toxic effect on the cells reaches its halfway point) at 48 h in data set [4] was greater than 100 µM. The MIC (commonly the least concentration at which growth counts as inhibited) in data set [5] (S. pneumoniae 21Q352, Clinical, i-MLSB) was found to be 64 µg/mL (≈ 87.2 µM); in data set [5] (S. pneumoniae 21Q353, Clinical, i-MLSB), 32 µg/mL (≈ 43.6 µM); in data set [5] (S. pneumoniae 21X435, Clinical), 0.03 µg/mL (≈ 0.0409 µM); in data set [5] (S. pneumoniae ATCC49619), 0.03 µg/mL (≈ 0.0409 µM); in data set [6] (S. pyogenes 01-968, Clinical, i-ermB), 1 µg/mL (≈ 1.36 µM); in data set [6] (S. pyogenes 12-207, Clinical, mef), 16 µg/mL (≈ 21.8 µM). Besides, 16 µg/mL (≈ 21.8 µM) was the least that counted as inhibitory in data set [6] (S. pyogenes 21K003, Clinical, mef) (MIC).

The record behind these values is PMC11239830, “Synthetic macrolides overcoming MLSBK-resistant pathogens” (Cell Discovery, 2024).
